Assay [1] has as its target T1, PYR1 (Arabidopsis thaliana, UniProt O49686).
T1 sequence (O49686 1-191): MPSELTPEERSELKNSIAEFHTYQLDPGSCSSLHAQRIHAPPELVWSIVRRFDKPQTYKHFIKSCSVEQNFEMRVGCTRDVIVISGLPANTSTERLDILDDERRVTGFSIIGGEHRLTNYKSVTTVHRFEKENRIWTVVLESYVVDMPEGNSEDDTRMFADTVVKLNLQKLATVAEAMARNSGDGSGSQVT
Briefly: biochemical. Also noted: Fluorescence competition displacing lebactin (1 uM) from PYR1 (8 uM); Kd from double-log titration fit. The settings on record: 1 uM lebactin, 8 uM PYR1; read-out: F(GhitFluors)/Kd/μM. The source says: (§1) Validation of the Fluorescent Chemosensor‐Based Screening Platform In‐house Chemical Database Screening Assay To validate the practicality of GhitFluors platform for global high‐throughput identification of ABA receptor modulators, we used this platform to analyze a library comprising several hundreds‐amide compounds. First, we evaluated K d values of several hundreds amide‐compounds using fluorescence competition assays. […] Meanwhile, binding affinities of the six compounds to PYR1 were evaluated using ITC or BLI assays to validate the screening results. […] As depicted in Figure 4a, a significant decrease in fluorescence intensity was observed as the concentration of diopyridin increased, ranging from 30 to 350 µM. When the concentration of diopyridin reached 350 µM, fluorescence intensity was close to the threshold. […] In addition, we also tested the binding affinities of diopyridin with other representative PYLs, including dimer (PYL1, PYL2), and monomer (PYL4, PYL5, and PYL10‐PYL12) that had K d values ranging from 0.97 to 32.8 µM, and 1.6 to 243.7 µM, respectively (Figure S20, Supporting Information).

For assay [2], the target named is T1, PYR1. Briefly: biochemical. More on the design: Isothermal titration calorimetry of compound binding to PYR1. Particulars: read-out: ITC/Kd/μM. The method, then: as §1, with “To” for “Validation of the Fluorescent Chemosensor‐Based Screening Platform In‐house Chemical Database Screening Assay To”
In assay [3] the target is T1, PYR1. Kind of assay: biochemical. Particulars: read-out: BLI/Kd/μM. Also noted: Bio-layer interferometry of compound binding to PYR1. The protocol: To validate the practicality of GhitFluors platform for global high‐throughput identification of ABA receptor modulators, we used this platform to analyze a library comprising several hundreds‐amide compounds. First, we evaluated K d values of several hundreds amide‐compounds using fluorescence competition assays. […] Meanwhile, binding affinities of the six compounds to PYR1 were evaluated using ITC or BLI assays to validate the screening results. […] As depicted in Figure 4a, a significant decrease in fluorescence intensity was observed as the concentration of diopyridin increased, ranging from 30 to 350 µM. When the concentration of diopyridin reached 350 µM, fluorescence intensity was close to the threshold. […] It should have a low fluorescence background, high fluorescence shift and stability, and appropriate binding affinity, as these determine the accuracy, feasibility and, the sensitivity of this platform, respectively. […] First, we evaluated the fluorescence background of all chemosensors by using 310–370 nm as excitation wavelength. […] In addition, the binding affinity of compound 1a (lebactin) for PYR1 was evaluated by bio‐layer interferometry (BLI). […]

Assay [4] deals with T2, PYR-HAB1 (PYR1 with HAB1) (Arabidopsis thaliana, UniProt O49686).
T2 construct: HAB1 construct not described in main text; with Protein phosphatase 2C 16
T2 sequence (O49686 1-191): T1 sequence (O49686 1-191)
T2 sequence (Q9CAJ0 1-511 partner): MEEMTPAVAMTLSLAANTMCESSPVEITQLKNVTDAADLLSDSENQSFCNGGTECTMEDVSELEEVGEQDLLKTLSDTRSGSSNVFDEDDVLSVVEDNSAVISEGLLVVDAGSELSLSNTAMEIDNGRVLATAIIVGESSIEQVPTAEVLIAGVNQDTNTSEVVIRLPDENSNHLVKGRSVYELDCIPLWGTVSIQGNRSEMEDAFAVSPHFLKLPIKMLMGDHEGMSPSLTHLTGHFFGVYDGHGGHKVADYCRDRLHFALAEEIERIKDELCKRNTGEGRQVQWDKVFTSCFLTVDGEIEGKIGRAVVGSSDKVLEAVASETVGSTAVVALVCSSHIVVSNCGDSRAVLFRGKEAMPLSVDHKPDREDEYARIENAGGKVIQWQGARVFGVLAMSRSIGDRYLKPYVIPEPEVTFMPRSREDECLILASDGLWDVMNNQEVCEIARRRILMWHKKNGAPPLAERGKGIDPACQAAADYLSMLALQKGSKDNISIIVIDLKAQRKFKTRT
Briefly: Ser/Thr phosphatase assay (Promega), HAB1 inhibition via PYR1. It is filed as biochemical.

Read-outs that look alike come from different tables or passages of the source. Where only a bound is given, the exact number is not on record here.

For `CC(C)(C)c1ccc(S(=O)(=O)Nc2c([N+](=O)[O-])cc(Br)cc2[N+](=O)[O-])cc1` [145a, N-(4-bromo-2,6-dinitrophenyl)-4-(tert-butyl)benzenesulfonamide], the Kd was 37.8 ± 1.31 µM at PYR1 [1] and 171 ± 3.76 µM at PYR1 [2].
As to `COc1ccc(C(=O)Nc2cccc3c2C(=O)N(C2CCC(=O)NC2=O)C3=O)cc1OC` (centres unmarked) [173b, N-(2(2,6-dioxopiperidin-3-yl)-1,3-dioxoisoindolin-4-yl)-3,4-dimethoxybenzamide], the values for the Kd on PYR1 [1] and at PYR1 [3] were 1.55 ± 0.11 µM and 9.5 ± 0.75 µM, respectively.
Consider `COc1ccc(C(=O)Nc2cccc3c2C(=O)N(C2CCC(=O)NC2=O)C3=O)cc1OC` (centres unmarked) [173b, diopyridin], for which the inhibition (as a rule, the percentage by which the read-out fell short of the control) at 50 µM in assay [4] was above 80%.
`O=[N+]([O-])c1cc(Br)cc([N+](=O)[O-])c1NS(=O)(=O)c1cccc(F)c1` [260a, N-(4-bromo-2,6-dinitrophenyl)-3-fluorobenzenesulfonamide]: the Kd at PYR1 [1] is 3.96 ± 0.4 µM; at PYR1 [2], 7.59 ± 1.62 µM.
For `O=[N+]([O-])c1cc(Br)cc([N+](=O)[O-])c1NS(=O)(=O)c1cccc(Cl)c1` [361a, N-(4-bromo-2,6-dinitrophenyl)-3-chlorobenzenesulfonamide], the results for the Kd at PYR1 [1] and at PYR1 [2] were 8.25 ± 0.25 µM and 7.06 ± 1.92 µM, respectively.
As to `Cc1ccccc1S(=O)(=O)Nc1c([N+](=O)[O-])cc(Br)cc1[N+](=O)[O-]` [368a, N-(4-bromo-2,6-dinitrophenyl)-2-methylbenzenesulfonamide], the Kd on PYR1 [1] turned out to be 4.73 ± 0.37 µM; at PYR1 [2] it was 14.9 ± 3.29 µM.
`O=[N+]([O-])c1cc(Br)cc([N+](=O)[O-])c1NS(=O)(=O)c1ccccc1Cl` [470a, N-(4-bromo-2,6-dinitrophenyl)-2-chlorobenzenesulfonamide]: the Kd on PYR1 [1] worked out at 8.43 ± 0.75 µM; on PYR1 [2], 9.51 ± 2.19 µM.
Consider `CC1=CC(=O)CC(C)(C)[C@@]1(O)/C=C/C(C)=C\C(=O)O` [ABA], for which the inhibition at 25 µM in assay [4] was above 80%.

The values are drawn from paper PMC12165062, “High‐Throughput Fluorescence Screening Enables Globally Consistent Identification of ABA Signaling Modulators” (Advanced Science, 2025).
